Patent publication US20190084939A1, “ANALOGS OF FEXARAMINE AND METHODS OF MAKING AND USING” (Salk Institute for Biological Studies, priority 2014, published 2019)

Columns and labels:
Human FXR full length = biological target: T1, Human FXR full length (Homo sapiens, UniProt Q96RI1); assay: FXR activity screen, luciferase reporter in transfected CV-1 cells; format: cell-based; details: fexaramine control in the retest; read-out: Fex EC50
T1 construct: Human FXR full length and RXR full length was obtained from Ronald Evans' laboratory; expressed in transfected cells; host or cells: CV-1 cells
T1 sequence (Q96RI1 1-476 isoform Q96RI1-1): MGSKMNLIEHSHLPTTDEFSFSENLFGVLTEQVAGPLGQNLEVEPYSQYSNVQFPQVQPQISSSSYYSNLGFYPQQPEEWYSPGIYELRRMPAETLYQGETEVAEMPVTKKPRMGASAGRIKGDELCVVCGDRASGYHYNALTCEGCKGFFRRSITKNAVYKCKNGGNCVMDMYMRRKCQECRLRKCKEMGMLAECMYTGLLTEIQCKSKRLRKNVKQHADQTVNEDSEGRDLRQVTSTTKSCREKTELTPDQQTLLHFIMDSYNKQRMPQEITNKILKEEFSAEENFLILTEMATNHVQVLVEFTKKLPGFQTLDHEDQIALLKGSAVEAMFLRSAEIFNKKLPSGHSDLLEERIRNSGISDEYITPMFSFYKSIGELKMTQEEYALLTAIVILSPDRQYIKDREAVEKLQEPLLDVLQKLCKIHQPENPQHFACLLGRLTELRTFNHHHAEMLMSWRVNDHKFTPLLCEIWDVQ
T1 sequence (P19793 1-462 partner): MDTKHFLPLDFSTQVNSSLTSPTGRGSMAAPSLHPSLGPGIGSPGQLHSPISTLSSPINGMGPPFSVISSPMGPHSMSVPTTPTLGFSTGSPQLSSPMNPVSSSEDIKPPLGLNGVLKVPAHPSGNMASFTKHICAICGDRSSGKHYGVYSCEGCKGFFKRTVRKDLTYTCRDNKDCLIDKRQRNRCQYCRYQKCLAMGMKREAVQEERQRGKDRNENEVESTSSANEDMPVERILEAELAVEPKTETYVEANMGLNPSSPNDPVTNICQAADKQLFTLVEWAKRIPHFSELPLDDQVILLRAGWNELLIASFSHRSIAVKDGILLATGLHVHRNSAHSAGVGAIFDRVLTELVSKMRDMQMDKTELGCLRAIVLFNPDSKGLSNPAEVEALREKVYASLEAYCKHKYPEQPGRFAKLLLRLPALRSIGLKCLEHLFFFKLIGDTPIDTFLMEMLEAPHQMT
How it was run: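 CV-1 cells in charcoal-stripped serum, transfected with full-length human FXR, RXR, FXRE-luciferase reporter and β-Gal; 48 h expression, then 24 h compound (0.001–100 μM, quadruplicate, 1:1000 DMSO dilution). Luciferase normalized to β-galactosidase; fold induction vs untreated, efficacy relative to fexaramine, EC50 by non-linear regression.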

DIO mice = assay: hyperinsulinemic-euglycemic clamp in DIO mice; format: in vivo
Method: FIGS. 15I-15K are a line graph and two bar graphs showing the effect of fexaramine treatment on body weight, insulin-stimulated GDR, and fasting insulin levels. Mice were fed HFD for 14 weeks, and then administered daily oral injections of vehicle or fexaramine (100 mg/kg) for 3 weeks with HFD. The mice treated with fexaramine were initially heavier (by 2-3 grams). Three weeks after treatment, a clamp study was performed on the mice. Data represent the mean±STD. Statistical analysis was performed with the Student's t test (*p<0.05, **p<0.01).

[1] = tested on: C57BL/6J mice with intragastric ethanol feeding; assay: alcoholic liver disease, Tsukamoto-French mouse model; format: in vivo; details: ethanol feeding 3 weeks; 100 mg/kg/day oral gavage
Method: FIGS. 44A-44C are a (A) digital image of histology images of the liver and (B) and (C) bar graphs showing that administration of fexaramine can protect the liver from alcoholic liver disease, for example by decreasing fat in the liver, liver enzyme ALT and triglycerides (TG). C57BL/6J mice, fed an isocaloric diet or ethanol through continuous intragastric feeding for 3 weeks, were co-administered Fexaramine (100 mg/kg/day oral gavage) or vehicle. (A) Histological liver sections from ethanol fed mice after vehicle or fexaramine treatment. (B) Bar graph of serum alanine aminotransferase (ALT) levels in vehicle and fexaramine treated mice after 3 weeks of an ethanol diet (C) Liver triglyceride levels in vehicle and fexaramine treated mice after 3 weeks of an ethanol or isocaloric (control) diet.
The Tsukamoto-French mouse model, which involves continuous intragastric feeding of isocaloric diet or ethanol for 3 weeks, was used. C57BL/6J mice were co-administered vehicle or fexaramine by oral gavage (100 mg/kg/day). Mice were sacrificed after treatment and conjugated and unconjugated bile acid levels measured in serum and liver by liquid chromatography/mass spectrometry.

Structure (SMILES): COC(=O)/C=C/c1cccc(N(Cc2ccc(-c3ccc(N(C)C)cc3)cc2)C(=O)C2CCCCC2)c1 [Fexaramine, fexaramine]
- EC50 (Human FXR full length): 63 nM
- insulin-mediated suppression of HGP (DIO mice; versus control DIO mice): marked increase
- basal HGP, GDR, IS-GDR, FFA suppression and fasting insulin levels (DIO mice; weight-matched cohorts): No differences
- hepatic steatosis [1]: decreasing hepatic steatosis
- serum levels of alanine aminotransferase (ALT) [1]: decreased
